How the values were obtained:
[1] = test system: SW48 human colorectal cancer cells (MSI-H cancer cells); assay: SW48 cell viability, CellTiter-Glo, 120 hours (Example B); settings: Homo sapiens, SW48, 120 h, read-out: SW48 pCC50, SW48 cell viability, 120 hours incubation (converted); Table 2
[2] = target: T1, recombinant full-length WRN protein (1-1432) (Homo sapiens, UniProt Q14191); assay: WRN unwinding activity, fluorogenic 384-well assay (Example A); type: biochemical; settings: WRN unwinding activity, 4 hr; Table 2; read-out: 4 hr UNW pIC50 (converted)
T1 construct: recombinant full-length WRN protein (1-1432)
T1 sequence (Q14191 whole entry): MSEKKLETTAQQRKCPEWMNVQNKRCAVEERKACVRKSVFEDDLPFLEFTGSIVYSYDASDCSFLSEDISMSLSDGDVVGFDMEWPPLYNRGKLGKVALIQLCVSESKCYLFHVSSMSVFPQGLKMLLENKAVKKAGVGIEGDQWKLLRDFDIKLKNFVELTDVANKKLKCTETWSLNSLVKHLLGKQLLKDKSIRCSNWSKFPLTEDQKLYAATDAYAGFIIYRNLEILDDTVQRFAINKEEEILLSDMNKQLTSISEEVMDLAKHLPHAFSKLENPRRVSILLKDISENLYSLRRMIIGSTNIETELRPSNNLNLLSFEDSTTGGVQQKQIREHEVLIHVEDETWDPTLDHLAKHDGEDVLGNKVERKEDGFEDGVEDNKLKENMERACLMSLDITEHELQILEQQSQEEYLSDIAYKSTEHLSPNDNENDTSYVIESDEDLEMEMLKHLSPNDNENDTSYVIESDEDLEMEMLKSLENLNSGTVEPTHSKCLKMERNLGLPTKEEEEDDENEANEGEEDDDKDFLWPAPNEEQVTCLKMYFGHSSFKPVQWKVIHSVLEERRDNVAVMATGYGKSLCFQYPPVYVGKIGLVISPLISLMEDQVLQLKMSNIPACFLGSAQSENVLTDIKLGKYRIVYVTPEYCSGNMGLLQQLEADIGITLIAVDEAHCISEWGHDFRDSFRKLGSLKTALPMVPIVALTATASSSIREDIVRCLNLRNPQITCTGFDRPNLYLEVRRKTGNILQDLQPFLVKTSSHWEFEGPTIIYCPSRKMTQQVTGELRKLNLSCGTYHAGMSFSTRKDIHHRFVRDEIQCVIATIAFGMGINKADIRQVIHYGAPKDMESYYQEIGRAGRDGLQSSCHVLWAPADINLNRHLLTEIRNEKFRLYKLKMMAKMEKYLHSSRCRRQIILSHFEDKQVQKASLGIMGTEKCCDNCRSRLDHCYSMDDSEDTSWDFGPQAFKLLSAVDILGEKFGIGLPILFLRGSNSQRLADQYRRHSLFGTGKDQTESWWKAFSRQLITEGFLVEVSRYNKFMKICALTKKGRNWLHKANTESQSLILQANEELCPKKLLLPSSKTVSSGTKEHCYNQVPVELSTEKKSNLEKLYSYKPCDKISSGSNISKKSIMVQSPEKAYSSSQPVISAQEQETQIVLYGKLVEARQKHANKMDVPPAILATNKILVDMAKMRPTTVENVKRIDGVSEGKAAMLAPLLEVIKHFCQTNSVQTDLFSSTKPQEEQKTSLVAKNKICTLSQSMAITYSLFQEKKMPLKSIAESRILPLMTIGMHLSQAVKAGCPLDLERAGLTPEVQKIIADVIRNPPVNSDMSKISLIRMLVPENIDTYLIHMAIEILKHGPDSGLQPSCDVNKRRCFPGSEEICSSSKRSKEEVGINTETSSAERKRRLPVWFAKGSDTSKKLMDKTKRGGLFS
In short: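 Read-out is end-point unwinding of a fluorophore/quencher duplex (ex 525, em 598 nm) after 60 min with 200 μM ATP and 12 nM DNA (2× stocks), EDTA stop. Compound first sat 4 h with 200 pM WRN (2× stock) in pH 8.0 Tris buffer; four-parameter fit gives pIC50.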

| SMILES | IC50 [2] | CC50 [1] |
| --- | --- | --- |
| O=C(O)[C@@H]1[C@@H](c2ccc([C@H]3CCC(F)(F)C3)cc2)CCC[C@H]1C(=O)Nc1ccc(C(F)(F)F)cc1F (racemic) [Example 64, 1:1 Mixture of (1R,2S,6R)-2-(4-((S)-3,3-difluorocyclopentyl)phenyl)-6-((2-fluoro-4-(trifluoromethyl)phenyl)carbamoyl)cyclohexane-1-carboxylic acid AND (1R,2S,6R)-2-(4-((R)-3,3-difluorocyclopentyl)phenyl)-6-((2-fluoro-4-(trifluoromethyl)phenyl)carbamoyl)cyclohexane-1-carboxylic acid] | 25.1 nM | 15800 nM |
| Cc1nc2cc(S(=O)(=O)N(C)c3ccc([C@H]4CCC[C@@H](C(=O)Nc5ccc(C(C)C)cc5)[C@H]4C(=O)O)cc3)ccc2n1C (racemic) [Example 75, rac-(1R,2S,6R)-2-((4-isopropylphenyl)carbamoyl)-6-(4-((N,1,2-trimethyl-1H-benzo[d]imidazole)-5-sulfonamido)phenyl)cyclohexane-1-carboxylic acid] | 6.31 nM | 5010 nM |
| Cc1nc2cc(S(=O)(=O)N(C)c3ccc([C@H]4CCC[C@@H](C(=O)Nc5ccc(C(C)C)cc5)[C@@H]4C(=O)O)cc3)ccc2n1C (racemic) [Example 78, rac-(1R,2R,6S)-2-((4-isopropylphenyl)carbamoyl)-6-(4-((N,1,2-trimethyl-1H-benzo[d]imidazole)-5-sulfonamido)phenyl)cyclohexane-1-carboxylic acid] | 2 nM | 1000 nM |
| Cc1nc2cc(S(=O)(=O)N(C)c3ccc([C@H]4CCC[C@@H](C(=O)Nc5ccc(C(F)(F)F)cc5F)[C@@H]4C(=O)O)cc3)ccc2n1C (racemic) [Example 81, rac-(1R,2R,6S)-2-((2-fluoro-4-(trifluoromethyl)phenyl)carbamoyl)-6-(4-((N,1,2-trimethyl-1H-benzo[d]imidazole)-5-sulfonamido)phenyl)cyclohexane-1-carboxylic acid] | 7.94 nM | 1260 nM |
| C=C(F)C(=O)Nc1ccc([C@H]2CCC[C@@H](C(=O)Nc3ccc(C(F)(F)F)cc3F)[C@@H]2C(=O)O)cc1 (racemic) [Example 227, rac-(1R,2R,6S)-2-((2-fluoro-4-(trifluoromethyl)phenyl)carbamoyl)-6-(4-(2-fluoroacrylamido)phenyl)cyclohexane-1-carboxylic acid] | 79.4 nM | 15800 nM |
| Cc1nc2cc(S(=O)(=O)N(C)c3ccc([C@H]4COC[C@@H](C(=O)Nc5ccc(C(F)(F)F)cc5F)[C@@H]4C(=O)O)cc3)ccc2n1C (racemic) [Example 232, rac-(3R,4S,5R)-3-((2-fluoro-4-(trifluoromethyl)phenyl)carbamoyl)-5-(4-((N,1,2-trimethyl-1H-benzo[d]imidazole)-5-sulfonamido)phenyl)tetrahydro-2H-pyran-4-carboxylic acid] | 1.58 nM | 1260 nM |
| [2H]C([2H])([2H])O[C@@H]1C[C@H](C(=O)Nc2ccc(C(F)(F)F)cc2F)[C@@H](C(=O)O)[C@H](c2ccc(N(C)S(=O)(=O)c3ccc4c(c3)nc(C)n4C)cc2)C1 (relative stereo) [Example 149, rel-(1R,2R,4R,6S)-2-((2-fluoro-4-(trifluoromethyl)phenyl)carbamoyl)-4-methoxy-6-(4-((N,1,2-trimethyl-1H-benzo[d]imidazole)-5-sulfonamido)phenyl)cyclohexane-1-carboxylic acid] | 1.58 nM | 200 nM |
| CCO[C@@H]1C[C@H](C(=O)Nc2ccc(C(F)(F)F)cn2)[C@@H](C(=O)O)[C@H](c2ccc(N(C)S(=O)(=O)c3ccc4c(c3)nc(C)n4C)cc2)C1 (relative stereo) [Example 156, rel-(1R,2R,4R,6S)-4-ethoxy-2-((5-(trifluoromethyl)pyridin-2-yl)carbamoyl)-6-(4-((N,1,2-trimethyl-1H-benzo[d]imidazole)-5-sulfonamido)phenyl)cyclohexane-1-carboxylic acid] | 126 nM | 25100 nM |
| Cc1nc2cc(S(=O)(=O)N(C)c3cnc([C@@H]4CCC[C@H](C(=O)Nc5ccc(C(F)(F)F)cc5F)[C@H]4C(=O)O)cn3)ccc2n1C (relative stereo) [Example 165, rel-(1R,2R,6S)-2-((2-fluoro-4-(trifluoromethyl)phenyl)carbamoyl)-6-(5-((N,1,2-trimethyl-1H-benzo[d]imidazole)-5-sulfonamido)pyrazin-2-yl)cyclohexane-1-carboxylic acid] | 25.1 nM | 25100 nM |
| C#CC(=O)N(C)c1ccc([C@H]2CCC[C@@H](C(=O)Nc3ccc(C(F)(F)F)cc3F)[C@@H]2C(=O)O)cc1 [Example 229, (1R,2R,6S)-2-((2-fluoro-4-(trifluoromethyl)phenyl)carbamoyl)-6-(4-(N-methylpropiolamido)phenyl)cyclohexane-1-carboxylic acid] | 316 nM |  |
| CN(c1ccc([C@H]2CCC[C@@H](C(=O)Nc3ccc(C(F)(F)F)cc3F)[C@@H]2C(=O)O)cc1)S(=O)(=O)c1ccc(C=O)c(O)c1 [Example 276, (1R,2R,6S)-2-((2-fluoro-4-(trifluoromethyl)phenyl)carbamoyl)-6-(4-((4-formyl-3-hydroxy-N-methylphenyl)sulfonamido)phenyl)cyclohexane-1-carboxylic acid] | 6.31 nM |  |

More lines, main results first:

| IC50 [2] | SMILES | CC50 [1] |
| --- | --- | --- |
| 12.6 nM | Cc1nc2cc(S(=O)(=O)N(C)c3ccc([C@H]4C[C@@](C)(O)C[C@@H](C(=O)Nc5ccc(C(F)(F)F)cc5F)[C@@H]4C(=O)O)cc3)ccc2n1C (racemic) [Example 356, rac-(1R,2R,4R,6S)-2-((2-fluoro-4-(trifluoromethyl)phenyl)carbamoyl)-4-hydroxy-4-methyl-6-(4-((N,1,2-trimethyl-1H-benzo[d]imidazole)-5-sulfonamido)phenyl)cyclohexane-1-carboxylic acid] | 1260 nM |
| 10 nM | Cc1nc2cc(S(=O)(=O)N(C)c3ccc([C@H]4C[C@](C)(O)C[C@@H](C(=O)Nc5ccc(C(F)(F)F)cc5F)[C@@H]4C(=O)O)cc3)ccc2n1C (racemic) [Example 357, rac-(1R,2R,4S,6S)-2-((2-fluoro-4-(trifluoromethyl)phenyl)carbamoyl)-4-hydroxy-4-methyl-6-(4-((N,1,2-trimethyl-1H-benzo[d]imidazole)-5-sulfonamido)phenyl)cyclohexane-1-carboxylic acid] | 1000 nM |
| 6.31 nM | CCO[C@@H]1CC[C@@H](C(=O)Nc2ccc(C(F)(F)F)cc2F)[C@H](C(=O)O)[C@H]1c1ccc(N(C)S(=O)(=O)c2ccc3c(c2)nc(C)n3C)cc1 (racemic) [Example 371, rac-(1R,2S,3R,6R)-3-ethoxy-6-((2-fluoro-4-(trifluoromethyl)phenyl)carbamoyl)-2-(4-((N,1,2-trimethyl-1H-benzo[d]imidazole)-5-sulfonamido)phenyl)cyclohexane-1-carboxylic acid] | 1000 nM |
| 1.58 nM | Cc1nc2cc(S(=O)(=O)N(C)c3ccc([C@H]4C[C@@H](OCC5COC5)C[C@@H](C(=O)Nc5ccc(C(F)(F)F)cc5F)[C@@H]4C(=O)O)cc3)ccc2n1C (relative stereo) [Example 282, rel-(1R,2R,4R,6S)-2-((2-fluoro-4-(trifluoromethyl)phenyl)carbamoyl)-4-(oxetan-3-ylmethoxy)-6-(4-((N,1,2-trimethyl-1H-benzo[d]imidazole)-5-sulfonamido)phenyl)cyclohexane-1-carboxylic acid] | 63.1 nM |
| 251 nM | COC12CC(CO[C@@H]3C[C@H](C(=O)Nc4ccc(C(F)(F)F)cc4F)[C@@H](C(=O)O)[C@H](c4ccc(N(C)S(=O)(=O)c5ccc6c(c5)nc(C)n6C)cc4)C3)(C1)C2 (relative stereo) [Example 331, rel-(1R,2R,4R,6S)-2-((2-fluoro-4-(trifluoromethyl)phenyl)carbamoyl)-4-((3-methoxybicyclo[1.1.1]pentan-1-yl)methoxy)-6-(4-((N,1,2-trimethyl-1H-benzo[d]imidazole)-5-sulfonamido)phenyl)cyclohexane-1-carboxylic acid] | 20000 nM |
| 79.4 nM | Cc1nc2cc(S(=O)(=O)N(C)c3ccc([C@@H]4C[C@H](N5CCOCC5)C[C@H](C(=O)Nc5ccc(C(F)(F)F)cc5F)[C@H]4C(=O)O)cc3)ccc2n1C (relative stereo) [Example 338, rel-(1R,2R,4R,6S)-2-((2-fluoro-4-(trifluoromethyl)phenyl)carbamoyl)-4-morpholino-6-(4-((N,1,2-trimethyl-1H-benzo[d]imidazole)-5-sulfonamido)phenyl)cyclohexane-1-carboxylic acid] | 15800 nM |
| 1.58 nM | Cc1nc2cc(S(=O)(=O)N(C)c3ccc([C@H]4C[C@@H](N5CCCCC5)C[C@@H](C(=O)Nc5ccc(C(F)(F)F)cc5F)[C@@H]4C(=O)O)cc3)ccc2n1C (relative stereo) [Example 348, rel-(1R,2R,4R,6S)-2-((2-fluoro-4-(trifluoromethyl)phenyl)carbamoyl)-4-(piperidin-1-yl)-6-(4-((N,1,2-trimethyl-1H-benzo[d]imidazole)-5-sulfonamido)phenyl)cyclohexane-1-carboxylic acid] | 398 nM |
| 316 nM | Cc1nc2cc(S(=O)(=O)N(C)c3ccc([C@@H]4C[C@H](N5CCC(F)(F)C5)C[C@H](C(=O)Nc5ccc(C(F)(F)F)cc5F)[C@H]4C(=O)O)cc3)ccc2n1C [Example 305, (1S,2S,4S,6R)-4-(3,3-difluoropyrrolidin-1-yl)-2-((2-fluoro-4-(trifluoromethyl)phenyl)carbamoyl)-6-(4-((N,1,2-trimethyl-1H-benzo[d]imidazole)-5-sulfonamido)phenyl)cyclohexane-1-carboxylic acid] |  |

From patent publication US12662451B2, “Chemical compounds and uses thereof” (GLAXOSMITHKLINE INTELLECTUAL PROPERTY (NO.4) LIMITED, priority 2023, dated 2026)
